# Data from PMC3646032 (PLoS ONE, 2013).
# Where “and” joins values, the source holds several entries; their conditions need not be identical. Equal values may be shown once.
# Columns and labels:
# MtSK [1] = molecular target: T1, MtSK (Mycobacterium tuberculosis, UniProt P9WPY3); assay: Equilibrium fluorescence spectroscopy, intrinsic tyrosine fluorescence; format: binding; details: 25°C, pH 7.6
# Procedure: MtSK intrinsic protein fluorescence measurements were carried out to both determine the order of substrate/product addition/dissociation on/from the catalytic site and distinguish the enzyme kinetic mechanism. As MtSK has no tryptophan residues, changes in protein tyrosine fluorescence (the polypeptide chain of MtSK has 3 Tyr residues) upon ligand binding were monitored. Fluorescence measurements were carried out in a RF-5301 PC Spectrofluorophotometer (Shimadzu) at 25°C. Excitation wavelength was 280 nm and emission spectra were collected from 300 to 500 nm. The maximum values of fluorescence intensity at 315 nm values were plotted as a function of increasing ligand concentration. Excitation and emission slits were 5 nm. As protein tyrosine typically has a low sensitivity (low molar absorption coefficient and low fluorescence quantum yield), MtSK concentration for binding experiments was 10 µM. […]
# Equilibrium fluorescence spectroscopy data were fitted to Eq. 4, in which F is the observed fluorescence, F 0 is the initial fluorescence, F ∞ is the maximum change in fluorescence at saturating ligand (L) concentration, and K D represents the equilibrium dissociation constant for protein:ligand binary complex formation.
# MtSK [2] = molecular target: T1, MtSK; assay: biochemical; format: binding; details: 298.15 K, Hepes, pH 7.6
# [3] = 1-COOH, in solution; cited from earlier work
# [4] = system: E. coli SKII (aroL-encoded); details: cited from earlier work
# [5] = system: E. coli SKI (aroK-encoded); details: cited from earlier work
# [6] = system: EcSK (SK from Erwinia chrysanthemi); set-up: method as in PMID 11369852; details: cited from earlier work
# [7] = molecular target: EcSK (aroL-encoded SK from Erwinia chrysanthemi); set-up: method as in PMID 11369852; details: cited from earlier work
# [8] = molecular target: M. tuberculosis Shikimate Kinase (MtSK) (Mycobacterium tuberculosis, UniProt P9WPY3); format: biochemical
# M. tuberculosis Shikimate Kinase (MtSK), sequence (P9WPY3 2-176): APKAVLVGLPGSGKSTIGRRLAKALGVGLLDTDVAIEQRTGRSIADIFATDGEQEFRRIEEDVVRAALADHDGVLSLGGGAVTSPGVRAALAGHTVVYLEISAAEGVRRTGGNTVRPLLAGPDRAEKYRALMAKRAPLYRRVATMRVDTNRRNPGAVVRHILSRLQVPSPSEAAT
# MtSK [9] = molecular target: T1, MtSK; details: cited from earlier work
# T1 sequence (P9WPY3 2-176): as above
smiles,measurement,setting,value
"O=C(O)C1=C[C@@H](OP(=O)(O)O)[C@@H](O)[C@H](O)C1 [S3P, shikimate 3-phosphate]",change in intrinsic protein fluorescence upon binding to free MtSK,MtSK [1],No change in protein fluorescence
same,binding to free enzyme detected by ITC,MtSK [2],no binding
"O=C(O)C1=C[C@@H](O)[C@@H](O)[C@H](O)C1 [SKH, [3R-(3α,4α,5β)]3,4,5-trihydroxy-1-cyclohexene-1-carboxylic acid]",pK a,[3],4.47
same,K SKH,[4],200 µM
same,K SKH,[5],20×10 ^3 µM
same,KSKH,[5],20 mM
same,K SKH,[6],310 µM
"Nc1ncnc2c1ncn2[C@@H]1O[C@H](COP(=O)(O)OP(=O)(O)O)[C@@H](O)[C@H]1O [ADP, adenosine 5′-diphosphate]",-TΔS,MtSK [2],7.9 (±0.2) kcal mol^−1
same,Kd,MtSK [2],562 µM
same,ΔG,MtSK [2],−4.4 (±0.2) kcal mol^−1
same,ΔH,MtSK [2],−12.4 (±0.2) kcal mol^−1
same,ΔS,MtSK [2],−27 (±1) cal mol^−1 K^−1
"Nc1ncnc2c1ncn2[C@@H]1O[C@H](COP(=O)(O)OP(=O)(O)OP(=O)(O)O)[C@@H](O)[C@H]1O [ATP, adenosine 5'-triphosphate]",K MgATP,[4],160 µM
same,k cat/KMgATP,[4],200000 M⁻¹ s⁻¹
same,Kd,[7],2600 µM
same,-TΔS,MtSK [2],0.044 (±0.007) kcal mol^−1
same,Kd,MtSK [2],196 µM
same,ΔG,MtSK [2],−5.1 (±0.8) kcal mol^−1
same,ΔH,MtSK [2],−5.1 (±0.3) kcal mol^−1
same,ΔS,MtSK [2],−0.15 (±0.02) cal mol^−1 K^−1
same,K MgATP,[6],620 µM
same,k cat/KMgATP,[6],56000 M⁻¹ s⁻¹
same,K MgATP (Michaelis constant),[8]; pH 7.6,112 µM and 112 (±4) µM
same,k cat/KMgATP,"[8]; true steady-state, 25°C, pH 7.6",5.4 (±0.7)×10^5 M^−1 s^−1
same,K MgATP,MtSK [9],83 (±4) µM
same,k cat/KMgATP,MtSK [9],530000 M⁻¹ s⁻¹
c1c[nH]cn1 [imidazole],enzyme inhibition of MtSK activity,[8]; 50 mM imidazole in assay mixture,No enzyme inhibition
same,enzyme velocity of MtSK,[8]; assay mixture containing 50 mM imidazole (9.2 U mL^−1 in its absence),9.5 U mL^−1
